{
  "source": "paper PMC12706794",
  "about": "“Identification and Characterization of a Small-Molecule Inhibitor of the Pseudomonas aeruginosa SOS Response” (ACS Infectious Diseases, 2025)",
  "key": {"[1]": {"system": "P. aeruginosa PAO1", "assay": "Antimicrobial susceptibility testing (MIC)", "assay_type": "cell-based, P. aeruginosa PAO1 (ATCC 15692)", "conditions": "A12 (32 μg/mL) (−)", "experimental": "The MIC of compound A12 and antibiotics was determined by using the Clinical Laboratory Standard Institute (CLSI) recommendations with minor modifications. […] Microplates were incubated in a humidified incubator for 18 h at 37 °C, and the bacterial growth was quantified by OD600. According to CLSI, MICs are defined as the lowest concentrations of antimicrobial agents that prevent visible growth."}, "[2]": {"target": "T1, LexAPa (Pseudomonas aeruginosa, UniProt P37452)", "T1 construct": "different LexAPa variants (FlAsH-LexAPa ^CTD vs full-length LexAPa) were used in the two assays; made in house; host or cells: E. coli BL21(DE3)", "assay": "ESI-MS analysis of LexAPa preincubated with A12", "assay_type": "binding, P. aeruginosa", "conditions": "2 mM A12, 2 h at 25 °C; disulfide bond at Cys104, lost with 5 mM DTT", "experimental": "Then, ESI-MS analysis was carried out on both RecAPa and LexAPa alone and preincubated with A12 (referred to as RecAPa-A12 and LexAPa-A12, respectively).\nMS analysis was carried out on 5 μL samples of compound A12 (2 mM), of the proteins 6His-LexAPa and 6His-RecAPa (50 μM), and of the same proteins incubated with 2 mM A12 (2 h incubation at 25 °C, 10% v/v DMSO in 100 mM NaHCO3 pH 7.0). Aliquots of the latter samples were treated with 5 mM dithiothreitol (DTT) for 1 h at 25 °C before being buffer-exchanged in 100 mM NaHCO3 at pH 7.0. Samples were analyzed by an electrospray ionization (ESI) mass spectrometer equipped with a Xevo G2-XS ESI-Q-TOF mass spectrometer (Waters Corporation, Milford, Massachusetts, USA). Measurements were carried out at 1.5–1.8 kV capillary voltage and 30–40 V cone voltage.\nTryptic digestion was obtained at a 1:20 trypsin to protein ratio (by weight) after the incubation of the proteins (6His-LexAPa and 6His-RecAPa) with chemical compound A12. The reaction was left at 37 °C overnight and then stopped by freezing at – 20 °C. Proteolytic mixtures were analyzed by LC–MS, using an Agilent AdvanceBio Peptide Map column (2.1 × 150 mm × 2.7 μm; Santa Clara, CA, USA) connected to an Acquity H-Class instrument (Waters Corporation, Milford, Massachusetts, USA). […]"}, "[3]": {"system": "P. aeruginosa PAO1 on A549 lung epithelial cells", "assay": "P. aeruginosa PAO1 colonization of A549 lung epithelial cells", "assay_type": "cell-based"}, "[4]": {"target": "T2, LexAPa S125A / SOS-box dsDNA (Pseudomonas aeruginosa, UniProt P37452, S125A)", "T2 construct": "Concerning full-length LexAPa ^S125A, a biphasic melting curve was obtained for the pure protein; made in house; host or cells: E. coli BL21(DE3)", "T2 sequence (P37452 2-204 S125A)": "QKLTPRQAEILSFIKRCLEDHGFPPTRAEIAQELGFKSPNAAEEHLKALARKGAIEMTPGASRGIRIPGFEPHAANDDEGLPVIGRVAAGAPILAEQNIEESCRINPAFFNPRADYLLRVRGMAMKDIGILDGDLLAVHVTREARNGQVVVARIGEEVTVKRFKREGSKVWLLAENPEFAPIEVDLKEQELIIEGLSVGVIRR", "assay": "EMSA of LexAPa S125A binding to SOS box dsDNA", "assay_type": "biochemical, P. aeruginosa", "conditions": "60-fold molar excess of A12", "experimental": "LexAPa DNA-binding activity–which has to be preserved for an anti-SOS strategy to be effective–resides on the NTD but requires dimerization via the CTD. In this context, to rule out any interfering effect of A12 on LexAPa binding to SOS-box DNA, an EMSA was performed by incubating LexAPa with operator dsDNA sequences and different doses of A12, before analyzing the mixtures on native polyacrylamide gels.\nAn EMSA of the SOS-box dsDNA in the presence of full-length LexAPaS125A and different concentrations of the hit compound was performed to observe the potential interference effects of the selected drug on LexAPa binding to operator DNA sequences.\nSOS-box dsDNA was produced by mixing equimolar amounts of AT-repeat_For and AT-repeat_Rev oligonucleotides (Supplementary, Table S1) in annealing buffer (10 mM Tris–HCl, 50 mM NaCl, 1 mM EDTA, pH 7.5), heating at 95 °C for 5 min, and then allowing the mixture to cool down to room temperature slowly overnight. The E. coli “AT-repeat” operator sequence was used as it is fully compatible with the P. aeruginosa SOS-box consensus (CTG-N2-T-N7-CAG).\n1 μM SOS-box dsDNA was incubated either alone or with 8 μM 6His-LexAPa ^S125A in EMSA buffer (50 mM Tris–HCl, 750 mM KCl, 0.5 mM EDTA, pH 7.4). […]"}, "[5]": {"system": "A549 cells", "assay": "Cytotoxicity assessment by MTT assay, A549", "assay_type": "cell-based, Human", "conditions": "combination of ciprofloxacin 0.5 μg/mL and A12 100 μg/mL, 3 h", "experimental": "A549 cells were seeded in flat-bottom 96-well plates at 5 × 10^4 cells/well. THP-1 monocytes were differentiated into macrophages using PMA as described above, rested in PMA-free medium, detached by trypsinization, and seeded at 5 × 10^4 cells/well. Plates were incubated overnight to allow cell attachment. […] Test medium was then removed and replaced with fresh medium containing 0.5 mg/mL 3-(4,5-dimethylthiazol-2-yl)-2,5-diphenyltetrazolium bromide (MTT). After a 2 h incubation, the medium was discarded, formazan crystals were solubilized with 100 μL of DMSO, and absorbance was measured at 570 nm using a spectrophotometer (Varioskan LUX Multimode Microplate Reader, Thermo Fisher Scientific). Cell viability was expressed as a percentage relative to the untreated controls."}, "[6]": {"target": "T3, RecAPa (Pseudomonas aeruginosa, UniProt P08280)", "T3 construct": "made in house; host or cells: E. coli BL21(DE3)", "T3 sequence (P08280 2-346)": "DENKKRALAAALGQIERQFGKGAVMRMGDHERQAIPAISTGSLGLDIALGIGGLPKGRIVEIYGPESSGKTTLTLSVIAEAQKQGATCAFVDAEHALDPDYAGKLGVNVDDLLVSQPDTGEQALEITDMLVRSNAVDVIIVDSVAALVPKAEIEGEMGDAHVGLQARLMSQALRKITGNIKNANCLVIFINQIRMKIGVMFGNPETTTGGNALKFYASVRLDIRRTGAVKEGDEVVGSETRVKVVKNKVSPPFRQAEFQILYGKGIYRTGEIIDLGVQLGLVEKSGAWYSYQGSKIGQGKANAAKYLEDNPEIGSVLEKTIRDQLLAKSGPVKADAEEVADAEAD", "assay": "Differential scanning fluorimetry (thermal shift) on RecAPa", "assay_type": "binding, P. aeruginosa", "conditions": "read-out: RecAPa ΔTm compared to the control", "experimental": "To elucidate whether A12 binds RecAPa or LexAPa, the two proteins were submitted to a thermal shift assay by DSF, in the presence of different concentrations of A12 (30–1000 μM; Figure A–C). Controls devoid of A12 were included, as well.\nFluorescence of the SyproOrange dye was measured by a StepOne Real-Time PCR System (Applied Biosystems), while increasing the temperature from 25 to 95 °C (0.5 °C/min). Normalized fluorescence intensity curves were compared to observe macroscopic differences in the recorded melting profiles, while derivative curves were analyzed to find exact protein melting temperatures (T m, corresponding to derivative curve minimum). Melting curves were repeated twice, and duplicates were considered coherent if T m differences were lower than 1 °C."}, "[7]": {"conditions": "combination of ciprofloxacin 0.5 μg/mL and A12 100 μg/mL"}},
  "data": [
    {"smiles": "O=C(O)CCNc1ccccc1S", "note": "[A12, 3-(2-sulfanylanilino)propanoic acid]", "values": [
      {"measurement": "MIC on P. aeruginosa PAO1", "setting": "[1]", "result": "no antimicrobial activity"},
      {"measurement": "MIC", "setting": "[1]; Pseudomonas aeruginosa, PAO1", "result": "> 32", "unit": "µg/mL"},
      {"measurement": "Mass difference of A12-modified LexAPa versus unmodified protein", "setting": "[2]", "result": 195, "unit": "Da"},
      {"measurement": "Intracellular (internalized) burden of PAO1 in A549 cells", "setting": "[3]; A12 100 μg/mL alone", "result": "reduced the internalized bacterial growth"},
      {"measurement": "Intracellular (internalized) burden of PAO1 in A549 cells", "setting": "[3]; [7]", "result": "synergized with ciprofloxacin"},
      {"measurement": "Total (adherent + intracellular) burden of PAO1 on A549 lung cells", "setting": "[3]; [7]", "result": "significantly reduced colonization"},
      {"measurement": "LexAPa SOS box DNA-binding activity in the presence of A12", "setting": "[4]", "result": "retained full SOS box DNA-binding activity"},
      {"measurement": "Cell viability compared to the untreated control", "setting": "[5]", "result": "higher than 80%"},
      {"measurement": "ΔTm at 1000 µM", "setting": "[6]", "result": 10, "unit": "°C"}
    ]}
  ]
}
